The values that follow come from patent publication US7462630B2, “Diarylalkene derivatives and novel diarylalkane derivatives” (Ajinomoto Co., Inc., priority 2001, dated 2008).

One experiment addresses T1, L-type calcium channel (Rattus norvegicus, UniProt P22002).
T1 construct: relaxation response against the KCl-induced contraction of isolated rat thoracic aorta was employed; from tissue; host or cells: endothelium-denuded thoracic aorta rings of Wistar rat
Nature of the experiment: Antagonistic activity on L-type calcium channel (relaxation response against KCl-induced contraction of isolated rat thoracic aorta). Conditions: read-out: Antagonistic action on L-type calcium channels pIC50 (converted). On the procedure:
The antagonistic activity of the new diarylalkene derivatives and diarylalkane derivatives of the present invention to inhibit L-type calcium channel was determined by the following method in which the relaxation response against the KCl-induced contraction of isolated rat thoracic aorta was employed.
The slips of thoracic aorta isolated from a Wistar rat were used. The aorta was cut to obtain ring-shaped samples having a width of about 3 mm. The endothelial cells of the samples were mechanically removed. The samples were suspended in a strain gage in Tyrode's solution (158.3 mM of NaCl, 4.0 mM of KCl, 1.05 mM of MgCl2, 0.42 mM of NaH2PO4, 10 mM of NaHCO3, 2 mM of CaCl2 and 5 mM of glucose) in which a gaseous mixture of O2 (95%) and CO2 (5%) was introduced. A static tension of 2 g was applied thereto. The tension of the blood vessel was amplified with a transducer and a tension amplifier (EF-601G; Nihon Koden Corporation) and recorded with a multi-pen recorder (Rikadenki Kogyo Co., Ltd.). The experiments were conducted at 37° C.
After the tension had been stabilized, the nutrient solution in the sample tank was replaced with High K^+ Tyrode's solution (112.3 mM of NaCl, 50 mM of KCl, 1.05 mM of MgCl2, 0.42 mM of NaH2PO4, 10 mM of NaHCO3, 2 mM of CaCl2 and 5 mM of glucose) to conduct the contraction reaction. Thirty minutes after, the solution in the sample tank was replaced with the normal Tyrode's solution. The solution in the sample tank was again replaced with the High K^+ Tyrode's solution and the contraction reaction was observed. After attaining the maximum contraction reaction, the test compound was cumulatively added at intervals of 90 minutes to attain concentrations of 10^−9, 10^−8, 10^−7 and 10^−6 M. The inhibitory rate of the test compound against the maximum contraction response was employed as the index of the antagonistic activity on L-type calcium channels.
The value of pIC50 indicates the antagonistic activity of the test compound, i. e. the negative logarithm of the concentration of the test compound necessitated for the 50% inhibition.

A further experiment deals with T2, N-type calcium channel (Homo sapiens, UniProt Q00975).
T2 construct: host or cells: IMR-32 human neuroblastoma cells, differentiated with dibutyl cAMP and 5-bromodeoxyuridine
Briefly: Antagonistic activity on N-type calcium channel (fluorescence dye method, KCl-stimulated intracellular calcium change in IMR-32 cells with 1 μM Nifedipine). To be noted: 10 μM test compound, 60 mM KCl stimulation, read-out: Antagonistic activity on N-type calcium channels at 10 μM inhibition rate (%). Type of experiment: cell-based. The method, then: Human neuroblastoma cells IMR-32 were obtained from ATCC (American Type Culture Collection). The medium used was a Phenol Red-free Eagle minimum essential medium containing earle's salts (GIBCO) supplemented with 2 mM of L-glutamine (GIBCO), 1 mM of sodium pyruvate (pH 6.5) (GIBCO), antibiotic/antimycotic mixture (GIBCO) and 10% fetal calf serum (Cell Culture Technologies). Three ml of 1×10^5 cells/ml IMR-32 cells were spread on the glass bottom of a dish (Iwaki Glsss Co., Ltd.) having a diameter of 35 mm which had been treated with poly-L-lysin (SIGMA) and collagen (COLLAGEN VITROGEN 100; Collagen Co.). After the culture for 1 day, 1 mM (final concentration) of dibutyl cAMP and 2.5 μM (final concentration) of 5-bromodeoxyuridine (SIGMA) were added. After the culture for additional 10 to 14 days, the cells were subjected to the activity determination.
The medium for IMR-32 cells thus prepared was replaced with 1 ml of Phenol Red-free Eale minimum essential medium (GIBCO) containing 2.5 μM fura-2/AM (Dojin Kagaku, Co.) and earle's salts supplement, and the incubation was conducted at 37° C. for 30 minutes. Then the medium was replaced with a recording medium (20 mM of HEPES-KOH, 115 mM of NaCl, 5.4 mM of KCl, 0.8 mM of MgCl2, 1.8 mM of CaCl2 and 13.8 mM of D-glucose). Antagonistic activity on N-type calcium channel was determined and analyzed using a fluorescence microscope (Nikon Corporation) and an image analysis device ARGUS 50 (Hamamatsu Photonics). In particular, a recording medium (20 mM of HEPES-KOH, 115 mM of NaCl, 5.4 mM of KCl, 0.8 mM of MgCl2, 1.8 mM of CaCl2 and 13.8 mM of D-glucose) containing 1 μM of Nifedipine was given to the cells by reflux by a Y-tube method for 2 minutes. Then a stimulating agent containing 60 mM of potassium chloride was rapidly given by the Y-tube method. The calcium concentration change in the cells in this step was shown as the N-type calcium channel activity. Then stimulating agents containing 60 mM of potassium chloride and 0.1, 1 or 10 μM of the test compound were successively and rapidly given to the cells by the Y-tube method to determine the change in the intracellular calcium concentration. The antagonistic activity on N-type calcium channel was calculated from the inhibition rate (%) at a concentration of 10 μM.

T1 sequence (P22002 whole entry): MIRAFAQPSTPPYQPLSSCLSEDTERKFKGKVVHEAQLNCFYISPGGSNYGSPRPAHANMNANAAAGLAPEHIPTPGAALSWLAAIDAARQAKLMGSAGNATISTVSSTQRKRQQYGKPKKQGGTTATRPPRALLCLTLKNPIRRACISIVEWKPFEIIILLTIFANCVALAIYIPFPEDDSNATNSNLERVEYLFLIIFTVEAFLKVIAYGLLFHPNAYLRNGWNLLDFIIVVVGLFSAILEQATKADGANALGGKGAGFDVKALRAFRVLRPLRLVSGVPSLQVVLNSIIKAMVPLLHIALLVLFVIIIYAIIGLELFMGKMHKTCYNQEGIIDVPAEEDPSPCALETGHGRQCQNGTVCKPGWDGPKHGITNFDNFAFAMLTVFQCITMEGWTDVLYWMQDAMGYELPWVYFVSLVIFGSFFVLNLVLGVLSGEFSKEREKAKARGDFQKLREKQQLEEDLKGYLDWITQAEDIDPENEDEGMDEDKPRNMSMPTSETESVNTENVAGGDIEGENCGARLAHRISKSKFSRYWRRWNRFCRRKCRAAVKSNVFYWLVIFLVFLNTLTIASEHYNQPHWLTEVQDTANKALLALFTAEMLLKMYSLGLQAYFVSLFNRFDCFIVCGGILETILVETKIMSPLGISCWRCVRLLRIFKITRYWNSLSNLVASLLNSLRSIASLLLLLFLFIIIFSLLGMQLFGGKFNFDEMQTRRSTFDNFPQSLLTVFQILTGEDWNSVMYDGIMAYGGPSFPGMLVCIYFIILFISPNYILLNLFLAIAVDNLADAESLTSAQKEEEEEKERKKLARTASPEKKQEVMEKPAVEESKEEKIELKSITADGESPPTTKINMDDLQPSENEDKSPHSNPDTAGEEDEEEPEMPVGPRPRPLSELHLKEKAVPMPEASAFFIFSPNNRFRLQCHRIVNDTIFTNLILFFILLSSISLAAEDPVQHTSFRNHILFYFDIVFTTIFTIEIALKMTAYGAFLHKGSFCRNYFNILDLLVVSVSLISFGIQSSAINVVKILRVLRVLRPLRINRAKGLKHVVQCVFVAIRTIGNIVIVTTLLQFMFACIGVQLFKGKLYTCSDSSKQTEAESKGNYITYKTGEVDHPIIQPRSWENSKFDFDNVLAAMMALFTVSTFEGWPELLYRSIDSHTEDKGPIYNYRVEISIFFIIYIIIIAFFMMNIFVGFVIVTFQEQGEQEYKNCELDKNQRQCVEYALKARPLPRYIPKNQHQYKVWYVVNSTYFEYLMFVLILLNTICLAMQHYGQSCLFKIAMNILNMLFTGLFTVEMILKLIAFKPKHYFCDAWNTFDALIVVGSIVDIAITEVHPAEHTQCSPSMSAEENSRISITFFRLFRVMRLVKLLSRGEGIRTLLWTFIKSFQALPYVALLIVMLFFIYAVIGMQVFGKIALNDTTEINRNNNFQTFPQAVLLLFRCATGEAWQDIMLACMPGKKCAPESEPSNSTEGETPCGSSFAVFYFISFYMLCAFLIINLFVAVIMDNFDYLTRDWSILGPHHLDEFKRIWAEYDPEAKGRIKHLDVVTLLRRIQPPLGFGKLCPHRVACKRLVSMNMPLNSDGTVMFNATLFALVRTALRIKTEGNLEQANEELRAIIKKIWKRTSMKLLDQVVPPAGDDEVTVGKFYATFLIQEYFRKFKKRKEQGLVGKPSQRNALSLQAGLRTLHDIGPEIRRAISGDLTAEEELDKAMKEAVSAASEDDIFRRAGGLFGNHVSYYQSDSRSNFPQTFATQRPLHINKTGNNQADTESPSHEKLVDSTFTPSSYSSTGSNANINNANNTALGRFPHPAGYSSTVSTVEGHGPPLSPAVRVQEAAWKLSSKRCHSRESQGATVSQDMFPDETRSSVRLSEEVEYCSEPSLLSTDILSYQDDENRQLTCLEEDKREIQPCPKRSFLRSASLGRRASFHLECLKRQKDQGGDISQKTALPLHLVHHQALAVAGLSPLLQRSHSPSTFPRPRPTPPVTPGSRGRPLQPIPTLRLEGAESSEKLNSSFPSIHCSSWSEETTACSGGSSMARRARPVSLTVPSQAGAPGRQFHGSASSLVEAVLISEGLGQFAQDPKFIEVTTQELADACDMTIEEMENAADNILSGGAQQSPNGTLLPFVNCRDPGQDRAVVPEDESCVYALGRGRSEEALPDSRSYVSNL
T1 sequence (P54287 whole entry partner): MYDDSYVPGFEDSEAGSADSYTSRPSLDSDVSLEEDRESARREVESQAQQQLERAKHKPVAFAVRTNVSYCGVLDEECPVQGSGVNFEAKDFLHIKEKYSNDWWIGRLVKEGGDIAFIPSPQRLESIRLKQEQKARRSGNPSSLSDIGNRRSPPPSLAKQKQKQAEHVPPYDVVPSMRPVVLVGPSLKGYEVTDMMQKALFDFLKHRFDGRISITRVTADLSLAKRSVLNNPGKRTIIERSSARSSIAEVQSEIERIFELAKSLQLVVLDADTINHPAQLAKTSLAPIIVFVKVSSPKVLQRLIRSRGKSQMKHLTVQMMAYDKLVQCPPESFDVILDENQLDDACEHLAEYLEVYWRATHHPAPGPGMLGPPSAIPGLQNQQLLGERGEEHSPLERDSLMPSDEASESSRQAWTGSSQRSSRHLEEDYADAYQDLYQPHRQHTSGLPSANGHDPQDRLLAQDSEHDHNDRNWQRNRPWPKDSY
T1 sequence (P54290 25-944 partner limits assumed): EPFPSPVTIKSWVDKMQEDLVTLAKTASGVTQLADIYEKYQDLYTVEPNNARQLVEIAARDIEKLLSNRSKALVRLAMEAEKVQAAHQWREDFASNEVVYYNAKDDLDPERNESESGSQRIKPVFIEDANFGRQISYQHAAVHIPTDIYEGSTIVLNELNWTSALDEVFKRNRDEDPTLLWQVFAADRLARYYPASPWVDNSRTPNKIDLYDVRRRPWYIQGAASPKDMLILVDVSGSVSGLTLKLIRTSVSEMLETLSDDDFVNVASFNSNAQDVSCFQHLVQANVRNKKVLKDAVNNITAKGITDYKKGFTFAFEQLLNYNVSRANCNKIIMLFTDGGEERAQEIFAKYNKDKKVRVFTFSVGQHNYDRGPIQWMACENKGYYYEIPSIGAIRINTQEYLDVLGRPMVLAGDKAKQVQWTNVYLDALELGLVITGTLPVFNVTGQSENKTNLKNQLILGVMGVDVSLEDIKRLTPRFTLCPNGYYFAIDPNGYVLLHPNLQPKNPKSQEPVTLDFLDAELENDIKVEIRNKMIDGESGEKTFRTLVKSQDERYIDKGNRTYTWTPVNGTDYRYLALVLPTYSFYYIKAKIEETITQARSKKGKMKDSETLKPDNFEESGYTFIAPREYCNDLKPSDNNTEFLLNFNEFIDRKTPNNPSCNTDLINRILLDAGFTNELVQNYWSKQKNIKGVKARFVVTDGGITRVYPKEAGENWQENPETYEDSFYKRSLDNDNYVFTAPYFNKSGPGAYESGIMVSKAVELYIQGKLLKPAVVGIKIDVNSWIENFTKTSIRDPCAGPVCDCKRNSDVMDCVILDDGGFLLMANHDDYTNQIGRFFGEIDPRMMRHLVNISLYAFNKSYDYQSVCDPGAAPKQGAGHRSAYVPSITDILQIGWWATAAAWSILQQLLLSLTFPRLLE
T1 sequence (P54290 945-1091 partner limits assumed): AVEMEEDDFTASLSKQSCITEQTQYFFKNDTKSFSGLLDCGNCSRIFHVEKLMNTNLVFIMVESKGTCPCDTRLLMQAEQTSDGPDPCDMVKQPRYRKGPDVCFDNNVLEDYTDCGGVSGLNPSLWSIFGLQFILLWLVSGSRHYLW

`CC(C)(C)C(=O)NCCC(=O)N1CCC(=C2c3ccccc3C=Cc3ccccc32)CC1` [Example 11, N-{3-[4-(5H-dibenzo[a,d][7]annulen-5-ylidene)-1-piperidinyl]-3-oxopropyl}-2,2-dimethylpropanamide]: the IC50 at L-type calcium channel is 398 nM. Besides, at N-type calcium channel, the inhibition (commonly the drop in the measured response relative to a control, in per cent) at 10 µM stood at 77%.

`CC(C)(C)C(=O)N[C@H](CO)CCC(=O)N1CCC(=C2c3ccccc3C=Cc3ccccc32)CC1` [Example 71, (S)-N-[4-[4-(5H-dibenzo[a,d][7]annulen-5-ylidene)-1-piperidinyl]-1-(hydroxylmethyl)-4-oxobutyl]-2.2-dimethylpropanamide]: at L-type calcium channel, the IC50 was 1260 nM. At N-type calcium channel, the inhibition at 10 µM is 74%.
